Converted amounts (≈) assume the structure as drawn. The source made the active and inactive calls. The calls are words filed in the database; no cut-off is given here.
Experiments:
Escherichia coli = test: Antibacterial activity against Escherichia coli ATCC 0111 assessed as reduction in bacterial growth incubated for 24 hrs by two fold serial dilution method; format: functional, organism-based
Staphylococcus aureus = test: Antibacterial activity against Staphylococcus aureus 209P assessed as reduction in bacterial growth incubated for 24 hrs by two fold serial dilution method; format: functional
HeLa = test: Cytotoxicity against human HeLa cells assessed as reduction in cell viability incubated for 24 hrs by MTT assay; format: functional, cell-based

Structure (SMILES) | Activity (Escherichia coli) | Activity (Staphylococcus aureus) | Activity (HeLa) | MIC (Staphylococcus aureus) | IC50 (HeLa)
CC(=O)[C@@H](C)c1cc(O)c(Cc2c(O)cc(O)c3c(O)c4c(=O)cc(C)oc4cc23)c(O)c1C=O | inactive | inactive | inactive | – | –
CC(=O)[C@@H](C)c1cc(O)c(CO)c(O)c1C=O | inactive | inactive | inactive | – | –
Cc1cc(=O)c2c(O)c3c(O)cc(O)cc3cc2o1 | inactive | inactive | inactive | – | –
CC(=O)[C@@H](C)c1cc(O)c(C)c(O)c1C=O | inactive | inactive | inactive | – | –
Cc1cc(O)c(C)c(O)c1C | inactive | inactive | inactive | – | –
Cc1c(C)c(C(=O)O)c(O)c(C)c1O | inactive | inactive | inactive | – | –
CC(=O)[C@@H](C)c1cc(O)c(Cc2c(C)cc(O)cc2O)c(O)c1C=O | inactive | inactive | inactive | – | –
CC(=O)[C@@H](C)c1cc(O)c(Cc2c(C)c(C)c(O)c(C)c2O)c(O)c1C=O | inactive | inactive | inactive | – | –
CC(=O)[C@@H](C)c1cc(O)c(Cc2c(O)cc(O)c(Cc3c(O)cc([C@H](C)C(C)=O)c(C=O)c3O)c2C)c(O)c1C=O | inactive | inactive | inactive | – | –
CC(=O)[C@@H](C)c1cc(O)c(Cc2c3cc(O)cc(O)c3c(O)c3c(=O)cc(C)oc23)c(O)c1C=O | inactive | – | – | 32 µg/mL (≈ 66.9 µM) | 12.4 µM
